The text below walks through data of patent US11254686B1 (Corvus Pharmaceuticals, Inc., priority 2017, dated 2022).

A short description of data set [1]: Hepatocyte (Hep) intrinsic clearance, dog. The class given is in vitro ADME. The conditions noted are these: hepatocytes.
Data set [2] concerns the target CYP3A4 (Homo sapiens (Human), UniProt P08684). Kind of data set: CYP450 inhibition at 10 μM, CYP3A4. The class given is in vitro ADME. As to conditions: human, 10 μM, read-out: CYP 450 % INH @ 10 μM.
Data set [3] in a line: Hepatocyte (Hep) intrinsic clearance, monkey. The class given is in vitro ADME. The conditions noted are these: hepatocytes.
Data set [4] deals with adenosine A2B receptor (Homo sapiens (Human), UniProt P29275). The data set can be described thus: Adenosine receptor activity assay (Table 1), A2B activity. The class given is biochemical. As to conditions: for Ratio: A2A activity to A2B activity (A2A/A2B); for IC50: read-out: Ave A2B cAMP IC50.
adenosine A2B receptor, sequence (P29275 whole entry): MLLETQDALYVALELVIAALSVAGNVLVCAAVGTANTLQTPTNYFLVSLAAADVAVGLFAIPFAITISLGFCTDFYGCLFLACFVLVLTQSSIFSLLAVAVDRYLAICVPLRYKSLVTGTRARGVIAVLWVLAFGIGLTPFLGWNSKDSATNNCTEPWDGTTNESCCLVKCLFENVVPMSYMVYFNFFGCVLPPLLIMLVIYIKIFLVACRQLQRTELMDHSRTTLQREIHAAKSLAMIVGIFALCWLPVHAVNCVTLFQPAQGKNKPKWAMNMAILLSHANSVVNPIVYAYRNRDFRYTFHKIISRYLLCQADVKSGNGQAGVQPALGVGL
Data set [5] addresses adenosine A2A receptor (Homo sapiens (Human), UniProt P29274). The data set can be described thus: Adenosine receptor activity assay (Table 1), A2A activity. The class given is biochemical. The conditions noted are these: read-out: Ave A2A cAMP IC50.
A short description of data set [6]: Hepatocyte (Hep) intrinsic clearance, human. The class given is in vitro ADME. The conditions noted are these: hepatocytes.
Data set [7] is described as follows: Hepatocyte (Hep) intrinsic clearance, rat. The conditions noted are these: hepatocytes. Type of data set: in vitro ADME.
For data set [8], the target named is T1, adenosine A3 receptor (Homo sapiens (Human), UniProt P0DMS8). Kind of data set: A3 cAMP IC50 assay (Table 1). Type of data set: biochemical.
T1 sequence (P0DMS8 whole entry): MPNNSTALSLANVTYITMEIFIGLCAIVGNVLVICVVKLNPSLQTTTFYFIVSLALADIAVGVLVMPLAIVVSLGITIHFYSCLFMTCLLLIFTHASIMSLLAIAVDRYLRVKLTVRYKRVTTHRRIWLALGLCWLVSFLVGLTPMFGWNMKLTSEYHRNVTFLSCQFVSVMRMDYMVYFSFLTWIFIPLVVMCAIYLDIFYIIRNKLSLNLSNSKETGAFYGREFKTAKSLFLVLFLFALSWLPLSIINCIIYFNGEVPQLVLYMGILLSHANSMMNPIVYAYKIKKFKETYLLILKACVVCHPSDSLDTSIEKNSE
Data set [9] is described as follows: Liver microsome (LM) intrinsic clearance, human. Type of data set: in vitro ADME.
For data set [10], the target named is CYP2D6 (Homo sapiens (Human), UniProt P10635). Kind of data set: CYP450 inhibition at 10 μM, CYP2D6. Type of data set: in vitro ADME. The conditions noted are these: read-out: CYP 450 % INH @ 10 μM.
CYP2D6, sequence (P10635 whole entry): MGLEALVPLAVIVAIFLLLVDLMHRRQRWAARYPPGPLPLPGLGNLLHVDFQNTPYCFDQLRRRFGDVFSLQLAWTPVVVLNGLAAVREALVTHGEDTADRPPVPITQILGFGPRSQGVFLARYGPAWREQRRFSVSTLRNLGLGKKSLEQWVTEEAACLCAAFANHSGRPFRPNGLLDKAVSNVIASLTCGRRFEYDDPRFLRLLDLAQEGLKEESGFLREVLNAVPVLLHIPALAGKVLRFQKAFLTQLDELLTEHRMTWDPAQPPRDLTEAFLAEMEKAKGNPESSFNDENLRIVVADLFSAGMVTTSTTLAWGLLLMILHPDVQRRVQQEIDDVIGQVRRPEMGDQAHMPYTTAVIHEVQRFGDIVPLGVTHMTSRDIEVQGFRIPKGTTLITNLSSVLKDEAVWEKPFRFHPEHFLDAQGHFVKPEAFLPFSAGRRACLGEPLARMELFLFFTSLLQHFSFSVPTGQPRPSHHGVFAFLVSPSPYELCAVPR
The nature of data set [11]: Liver microsome (LM) intrinsic clearance, rat. Type of data set: in vitro ADME.
Data set [12] deals with T2, adenosine A1 receptor (Homo sapiens (Human), UniProt P30542). Kind of data set: A1 cAMP IC50 assay (Table 1). The class given is biochemical.
T2 sequence (P30542 whole entry): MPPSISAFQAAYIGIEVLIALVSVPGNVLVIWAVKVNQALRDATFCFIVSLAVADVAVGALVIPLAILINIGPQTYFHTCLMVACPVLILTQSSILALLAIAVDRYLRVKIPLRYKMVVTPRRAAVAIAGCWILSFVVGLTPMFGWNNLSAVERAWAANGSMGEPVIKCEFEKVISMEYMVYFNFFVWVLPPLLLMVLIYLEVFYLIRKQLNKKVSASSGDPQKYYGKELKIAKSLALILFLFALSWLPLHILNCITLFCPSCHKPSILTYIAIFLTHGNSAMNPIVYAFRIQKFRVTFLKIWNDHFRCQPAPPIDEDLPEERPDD
Data set [13] relates to CYP 450. The data set can be described thus: CYP450 inhibition at 10 μM. The class given is in vitro ADME.
In data set [14] the target is T2, adenosine A1 receptor. The data set can be described thus: Adenosine receptor activity assay (Table 1), A1 cAMP. The class given is cell-based.
The nature of data set [15]: Hepatocyte intrinsic clearance, human. Type of data set: in vitro ADME.
Data set [16] in a line: Hepatocyte intrinsic clearance, rat. The class given is in vitro ADME.
In data set [17] the target is T1, adenosine A3 receptor. The data set can be described thus: Adenosine receptor activity assay (Table 1), A3 cAMP. The class given is cell-based.
The nature of data set [18]: Liver microsome intrinsic clearance, human. The class given is in vitro ADME.
Data set [19] can be described thus: Liver microsome intrinsic clearance, rat. The class given is in vitro ADME.

adenosine A2A receptor, sequence (P29274 whole entry): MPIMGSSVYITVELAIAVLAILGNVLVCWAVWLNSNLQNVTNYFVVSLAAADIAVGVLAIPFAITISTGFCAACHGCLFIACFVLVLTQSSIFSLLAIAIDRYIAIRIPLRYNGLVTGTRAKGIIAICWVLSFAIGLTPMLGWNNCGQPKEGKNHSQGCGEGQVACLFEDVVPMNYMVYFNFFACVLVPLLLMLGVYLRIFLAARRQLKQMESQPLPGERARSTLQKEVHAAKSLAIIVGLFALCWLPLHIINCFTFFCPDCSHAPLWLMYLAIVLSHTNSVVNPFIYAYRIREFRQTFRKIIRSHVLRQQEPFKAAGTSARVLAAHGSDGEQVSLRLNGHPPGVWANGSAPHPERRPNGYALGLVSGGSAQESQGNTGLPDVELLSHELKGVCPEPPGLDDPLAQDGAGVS
CYP3A4, sequence (P08684 whole entry): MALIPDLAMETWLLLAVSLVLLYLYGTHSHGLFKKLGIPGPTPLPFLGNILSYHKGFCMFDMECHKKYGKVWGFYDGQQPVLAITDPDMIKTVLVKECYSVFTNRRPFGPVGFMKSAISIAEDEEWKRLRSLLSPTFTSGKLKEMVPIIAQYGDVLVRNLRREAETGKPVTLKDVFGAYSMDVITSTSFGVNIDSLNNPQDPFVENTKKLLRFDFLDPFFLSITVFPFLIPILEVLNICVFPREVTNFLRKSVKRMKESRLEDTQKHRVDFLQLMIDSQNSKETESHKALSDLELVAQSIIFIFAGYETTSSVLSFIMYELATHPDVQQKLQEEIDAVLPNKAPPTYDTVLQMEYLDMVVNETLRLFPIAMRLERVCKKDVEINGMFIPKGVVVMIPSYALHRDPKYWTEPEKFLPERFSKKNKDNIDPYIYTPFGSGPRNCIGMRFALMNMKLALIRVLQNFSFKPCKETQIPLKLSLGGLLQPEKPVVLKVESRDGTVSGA

What is called hepatocyte CLint is the rate of metabolic loss divided by the concentration. By IC50 is commonly meant the midpoint of a concentration-inhibition curve. Consider `C[C@H](Nc1nc(C(=O)N2CC[C@@H](F)C2)c2sccc2n1)c1ccccn1` [Example Z52, ((R)-3-Fluoropyrrolidin-1-yl)(2-(((S)-1-(pyridin-2-yl)ethyl)amino)thieno[3,2-d]pyrimidin-4-yl)methanone], for which the hepatocyte CLint in data set [1] worked out at 41.7 µL/min/1e6 cells; in [3], 18.7 µL/min/1e6 cells; in [6], 12.7 µL/min/1e6 cells; in data set [7], 45.3 µL/min/1e6 cells. The inhibition at 10 µM worked out at 7% in data set [2] and 0% in data set [10]. In [4], the Ratio amounted to 5.74. For the same compound, the IC50 was less than 10 nM in data set [4], 10 to 50 nM in data set [5], more than 500 nM in [8] and more than 500 nM in data set [12]. Besides, the “LM CLint” value in data set [9] amounted to 11.20 μL/min/mg/protein; in [11], 11.87 μL/min/mg/protein.
`C[C@H](Nc1nc(C(=O)N2CC[C@H](O)C2)c2sccc2n1)c1cccnc1` [Example Z28, ((S)-3-Hydroxypyrrolidin-1-yl)(2-(((S)-1-(pyridin-3-yl)ethyl)amino)thieno[3,2-d]pyrimidin-4-yl)methanone]: the hepatocyte CLint in data set [1] was found to be 2.59 µL/min/1e6 cells; in data set [3], 0.62 µL/min/1e6 cells; in data set [6], 3.48 µL/min/1e6 cells; in data set [7], 34.7 µL/min/1e6 cells. In addition, the values for the inhibition at 10 µM in data set [2] and in data set [10] were 35% and 11%, respectively. For the same compound, in [4], the Ratio is on record as 39.41. In addition, the IC50 in [4] is 50 to 100 nM; in data set [5], more than 500 nM; in [8] it was more than 500 nM; in data set [12], more than 500 nM. Moreover, the “LM CLint” value was 4.55 μL/min/mg/protein in data set [9] and 9.33 μL/min/mg/protein in data set [11].
For the compound `C[C@H](Nc1nc(C(=O)N2CCCC2)c2sccc2n1)c1ccccn1` [Example Z10, (S)-(2-((1-(Pyridin-2-yl)ethyl)amino)thieno[3,2-d]pyrimidin-4-yl)(pyrrolidin-1-yl)methanone], the hepatocyte CLint in data set [1] was 46.1 µL/min/1e6 cells; in data set [3] it was 17.9 µL/min/1e6 cells; in [6] it was 6.53 µL/min/1e6 cells; in [7], 26.7 µL/min/1e6 cells. The inhibition at 10 µM in [2] is 0%; in data set [10], 8%. The Ratio in [4] is on record as 7.99. The IC50 is less than 10 nM in data set [4], 50 to 100 nM in [5], more than 500 nM in data set [8] and more than 500 nM in [12]. For the same compound, the “LM CLint” value in data set [9] turned out to be 16.29 μL/min/mg/protein; in data set [11], 15.05 μL/min/mg/protein.
With “(6-Amino-2-(((S)-1-(5-fluoropyridin-3-yl)ethyl)amino)thieno[3,2-d]pyrimidin-4-yl)((S)-3-hydroxypyrrolidin-1-yl)methanone [Example Z212]”, the “CYP 450 % INH @ 10 μM” value in data set [13] is reported as 19.6%. In addition, the Ratio in data set [4] is 149.76. The IC50 in data set [4] is less than 10 nM; in data set [14], more than 500 nM; in data set [5], more than 500 nM; in data set [17], more than 500 nM. Further, the “Hep CLint” value in [15] worked out at 1.64 mL/min/10^6 cells; in data set [16] it was 5.95 mL/min/10^6 cells.
With `C[C@H](Nc1nc(C(=O)N2CC[C@H](O)C2)c2sccc2n1)c1ccccn1` [Example Z58, ((S)-3-Hydroxypyrrolidin-1-yl)(2-(((S)-1-(pyridin-2-yl)ethyl)amino)thieno[3,2-d]pyrimidin-4-yl)methanone], the hepatocyte CLint in [1] came out at 1.73 µL/min/1e6 cells; in data set [3], 0.19 µL/min/1e6 cells; in data set [6], 2.21 µL/min/1e6 cells; in data set [7] it was 4.46 µL/min/1e6 cells. Moreover, the values for the inhibition at 10 µM in [2] and in [10] were 0% and 10%, respectively. Also, in data set [4], the Ratio is recorded as 15.14. Moreover, the IC50 in data set [4] is 50 to 100 nM; in data set [5], more than 500 nM; in data set [8] it was more than 500 nM; in data set [12], more than 500 nM. The “LM CLint” value in [9] was 5.60 μL/min/mg/protein; in data set [11] it was 0.0 μL/min/mg/protein.
For the compound `C[C@H](Nc1nc(C(=O)N2CC[C@@H](O)C2)c2sc(C(F)(F)F)cc2n1)c1cccnc1` [Example Z337, ((R)-3-Hydroxypyrrolidin-1-yl)(2-(((S)-1-(pyridin-3-yl)ethyl)amino)-6-(trifluoromethyl)thieno[3,2-d]pyrimidin-4-yl)methanone], the “LM CLint” value in [18] was determined as 20.68 μL/min/mg/protein; in data set [19], 13.69 μL/min/mg/protein. Also, the Ratio in [4] is 120.82. Also, the IC50 was 10 to 50 nM in [4], more than 500 nM in [14], more than 500 nM in data set [5] and more than 500 nM in data set [17].
Regarding `Cc1cc2nc(N[C@@H](C)c3cccnc3)nc(C(=O)N3CC[C@@H](CO)C3)c2s1` [Example Z335, ((R)-3-(Hydroxymethyl)pyrrolidin-1-yl)(6-methyl-2-(((S)-1-(pyridin-3-yl)ethyl)amino)thieno[3,2-d]pyrimidin-4-yl)methanone], the “LM CLint” value in [18] was 10.36 μL/min/mg/protein; in data set [19], 33.31 μL/min/mg/protein. In data set [4], the Ratio is 200.00. The IC50 is less than 10 nM in data set [4], more than 500 nM in [14], more than 500 nM in data set [5] and more than 500 nM in data set [17].
In the case of `C[C@H](Nc1nc(C(=O)NCCc2ccc(O)cc2)c2sccc2n1)c1cncc(F)c1` [Example Z340, (S)-2-((1-(5-Fluoropyridin-3-yl)ethyl)amino)-N-(4-hydroxyphenethyl)thieno[3,2-d]pyrimidine-4-carboxamide], the results for the “LM CLint” value in [18] and in data set [19] were 258.52 μL/min/mg/protein and 504.21 μL/min/mg/protein, respectively. For the same compound, in data set [4], the Ratio was determined as 95.47. Further, the IC50 in data set [4] was less than 10 nM; in data set [14], more than 500 nM; in data set [5] it was 100 to 500 nM; in data set [17] it was more than 500 nM.
As for `C[C@H](Nc1nc(C(=O)N2CC[C@@H](O)C2)c2sccc2n1)c1ccccn1` [Example Z59, ((R)-3-Hydroxypyrrolidin-1-yl)(2-(((S)-1-(pyridin-2-yl)ethyl)amino)thieno[3,2-d]pyrimidin-4-yl)methanone], the hepatocyte CLint in [1] was 4.19 µL/min/1e6 cells; in data set [6] it was 1.5 µL/min/1e6 cells; in data set [7], 8.7 µL/min/1e6 cells. The results for the inhibition at 10 µM in [2] and in data set [10] were 0% and 15%, respectively. The Ratio in [4] is listed as 12.76. The IC50 in data set [4] is 10 to 50 nM; in data set [5] it was 100 to 500 nM; in data set [8], more than 500 nM; in data set [12], more than 500 nM. Also, the “LM CLint” value in data set [9] turned out to be 4.87 μL/min/mg/protein; in [11], 4.86 μL/min/mg/protein.
Consider `CO[C@@H]1CCN(C(=O)c2nc(N[C@@H](C)c3ccccn3)nc3cc(C)sc23)C1` [Example Z312, ((R)-3-Methoxypyrrolidin-1-yl)(6-methyl-2-(((S)-1-(pyridin-2-yl)ethyl)amino)thieno[3,2-d]pyrimidin-4-yl)methanone], for which the “LM CLint” value came out at 10.94 μL/min/mg/protein in data set [18] and 57.04 μL/min/mg/protein in data set [19]. Moreover, the Ratio in data set [4] was found to be 3.05. For the same compound, the IC50 is less than 10 nM in [4], more than 500 nM in data set [14], 10 to 50 nM in data set [5] and 50 to 100 nM in data set [17].
Consider `C[C@H](Nc1nc(C(=O)N2CC[C@@H](O)C2)c2sc(C(F)(F)F)cc2n1)c1cncc(F)c1` [Example Z391, (2-(((S)-1-(5-Fluoropyridin-3-yl)ethyl)amino)-6-(trifluoromethyl)thieno[3,2-d]pyrimidin-4-yl)((R)-3-hydroxypyrrolidin-1-yl)methanone], for which the “LM CLint” value in data set [18] is 12.73 μL/min/mg/protein; in data set [19], 7.73 μL/min/mg/protein. Besides, the Ratio in data set [4] is on record as 288.73. In addition, the IC50 is less than 10 nM in [4], more than 500 nM in data set [14], more than 500 nM in data set [5] and more than 500 nM in data set [17].
